This note sets out measurements from patent US20150272970A1, “TARGETING CHEMOTHERAPY AGENT RESISTANCE IN CANCER” (priority 2012, published 2015).

“Also recorded” adds a separate entry of the source.

Assay [1] deals with DU145-pCK19-GFP and 22Rv1-pCK19-GFP sorted cells. The assay is described as follows: Colony formation assay of GFP-sorted cells. Format: cell-based, human. Conditions: 72 hours; for colony formation of CK19/GFP-negative cells with PI3K/AKT and Bcl-2 inhibition: LY294002 50 μM, ABT-737 10 μM; for colony formation of CK19/GFP-negative cells / colony formation of CK19/GFP-positive cells: Mitoxantrone 125/500 nM, Cisplatin 5/2.5 μM, Vinorelbine 500/750 nM (DU145/22Rv1). Here is the method: (§1) Cells were exposed to vehicle solution (Control), LY294002 (50 μM), and ABT-737 (10 μM) for 72 hours, alone or in combination.

The test system of the next assay is CK19/GFP-negative cells. The assay is described as follows: Apoptotic response by Caspase-3 and PARP cleavage immunoblot. Format: cell-based, human. To be noted: LY294002 50 μM, ABT-737 10 μM, 72 hours. Here is the method: (§2) Whole cell extracts were prepared in sample buffer and analyzed by immunoblotting. Primary antibodies against poly (ADP-ribose) polymerase (PARP) (BD Pharmingen), cleaved caspase-3 (Cell Signaling), cytokeratin 19 (CK19) (Abcam), cytokeratin 18 (CK18) (Abcam), androgen receptor (AR) (Sigma-Aldrich), prostate specific membrane antigen (PSMA) (Abcam), prostate specific antigen (PSA) (Epitomics), cytokeratin 5 (CK5) (Covance), cytokeratin 14 (CK14) (Biogenex), p63 (Santa Cruz), CD44 (Neomarkers), activated Notch2 (Abcam), Hes1 (Abcam), Patched (Abcam), Gli1 (Santa Cruz), Gli2 (Abcam), pan-HLA class I (Abcam), and AKT (Cell Signaling), phospho-AKT Ser 473 (Cell Signaling), Bcl-2 (Cell Signaling), ABCB1/P-Glycoprotein (Calbiochem), Green fluorescent protein (Santa Cruz), and β-Actin (Sigma-Aldrich) were used in immunoblot assays using standard procedures. Protein expression was quantified by comparing band expression using Quantity One software (Bio-Rad).
as §1

In the next assay the test system is p-AKT (Ser473). Nature of the assay: Immunoblot of AKT phosphorylation. To be noted: 1 μM, 72 hours, CK19/GFP-negative cells. The format is cell-based, human. Here is the method:
as §2

For assay [2], the system named is Notch and Hedgehog pathway target genes. The assay is described as follows: Quantitative RT-PCR of Notch and Hedgehog pathway target genes in cells. The format is cell-based, human. To be noted: 1 μM, 72 hours, DU145-pCK19-GFP and 22Rv1-pCK19-GFP cells. Here is the method: Total RNA was isolated using the RNeasy Mini kit according to the manufacturer's instructions (Qiagen). Complementary DNA was synthesized from equivalent concentrations of total RNA using the SuperScript III First-Strand Synthesis SuperMix Kit (Invitrogen) according to the manufacturer's instructions. Coding sequences for genes of interest and β-Actin as an internal control were amplified from 500 ng of complementary DNA using the QuantiTect SYBR Green PCR Kit (Qiagen).
Amplification was carried out using a Stratagene mx3005p (Agilent Technologies). Cycle threshold (Ct) values were determined and normalized to the housekeeping gene (β-actin) for each experiment. Fold changes for experimental groups relative to respective controls were calculated using MX Pro software (Agilent Technologies). Quantitative RT-PCR was performed in DU145-pCK19-GFP and 22Rv1-pCK19-GFP cells as well as in cells obtained from mice bearing DU145 and 22Rv1 tumor xenografts treated for 21 days with Docetaxel, and Hedgehog and Notch inhibitors, alone or in combination. Quantitative RT-PCR was performed in tumor xenografts removed 4 hours after the last drug dose was administered.

Another assay relates to Bcl-2. Nature of the assay: Immunoblot of Bcl-2 expression. Format: cell-based, human. Conditions: 1 μM, 72 hours, CK19/GFP-negative cells. Here is the method: Whole cell extracts were prepared in sample buffer and analyzed by immunoblotting. […] Protein expression was quantified by comparing band expression using Quantity One software (Bio-Rad).
Assay [3] deals with DU145 and 22Rv1 xenografts. Nature of the assay: Percentage of CK-negative cells in tumor xenografts. The format is in vivo, NOD/SCID mice. Conditions: treated for 4 weeks.
Procedure: Immunofluorescence analyses were conducted on prostate cancer cell lines and formalin fixed paraffin-embedded tissue sections from normal human prostate, human cancers, and tumor xenografts. Primary antibodies included a combination of cytokeratin 19 and 18 (Abcam), green fluorescence protein (Abcam), cytokeratin 5 (Covance), cytokeratin 14 (Biogenex), p63 (Santa Cruz), pan-HLA class I (Abcam), Ki67 (Abcam) and the following transcription factors: activated Notch2 (Abcam), Gli1 (Santa Cruz), Gli2 (Abcam) and androgen receptor (DAKO). […] Prostate cancer cells (10,000) were plated in 35 mm culture dishes and 24 hours later stained by standard immunofluorescence procedures. Tissue sections (5 μm) were deparaffinized and submitted to standard peroxidase based immunohistochemistry and immunofluorescence procedures. Quantification of the expression of cytokeratins, HLA class I antigens, transcription factors, and androgen receptor was performed by evaluating tumor cells. Percentage of positive and negative cells was determined by counting the number of tumor cells in 10 contiguous high power fields in three different areas of the tumor, and referred to the total number of counted cancer cells.
A further assay concerns DU145-pCK19-GFP cells. The assay is described as follows: Flow cytometry of viable CK19/GFP populations after Docetaxel. Format: cell-based, human. Conditions: 10 nM Docetaxel for 72 h. In general terms: In flow cytometry, cells or beads pass a laser one at a time.
The next assay deals with 22Rv1-pCK19-GFP cells. The description is as above. The format is cell-based, human. Conditions: 50 nM Docetaxel.
Assay [4] concerns DU145-pCK19-GFP and 22Rv1-pCK19-GFP cells. The assay is described as follows: Immunoblots of Docetaxel-resistance markers in unsorted cells. The format is cell-based, human. To be noted: Docetaxel 72 hours (10 nM DU145, 50 nM 22Rv1). Here is the method: as §2
A general note: Immunoblotting shows a protein as a band on a membrane.

Assay [5] shares this test system. The assay is described as follows: Live cell imaging (time-lapse) in presence of Docetaxel. Format: cell-based, human. To be noted: in the presence of Docetaxel. Here is the method: Time-lapse videomicroscopy was used to assess Docetaxel sensitivity of DU145-pCK19-GFP and 22Rv1-pCK19-GFP cells. Cells growing in 6-well plates at low confluence were placed in the stage inside an incubator chamber at 37° C., 50% humidity, and in an atmosphere of 5% CO2. Unattended time-lapse movies of randomly chosen GFP+ and GFP− DU145 and 22Rv1 cells were performed with a Nikon Eclipse Ti inverted microscope. NIS Elements AR (Nikon) software was used to collect and process data. Imaging was performed using a 10× objective, and images were captured using 200-ms exposure times for GFP and 20-ms exposure times for bright field every 30 min.

Procedure for DU145-pCK19-GFP cells: Flow cytometry analysis of subpopulations of prostate cancer cells were carried out following standard procedures. Intracellular CK19 and CK18 expression analysis was performed in single-cell suspensions fixed with 70% ethanol, whereas the expression of cell surface HLA class I was determined in fresh cell samples (without fixation). Primary antibodies against CK19 (Abcam), CK18 (Abcam), HLA class I (Abcam), HLA class I conjugated to phycoerythrin (Abcam), and GFP (Abcam) were used. […] Samples were acquired with a FACscan Flow Cytometer (BD Biosciences) and analyzed with CellQuest Pro software (BD Biosciences). A minimum of 10,000 cells were measured per sample.

For `CN(C)CC[C@H](CSc1ccccc1)Nc1ccc(S(=O)(=O)NC(=O)c2ccc(N3CCN(Cc4ccccc4-c4ccc(Cl)cc4)CC3)cc2)cc1[N+](=O)[O-]` [ABT-737], the “colony formation of CK19/GFP-negative cells with PI3K/AKT and Bcl-2 inhibition” value in assay [1] was “not individual”. For the same compound, the “apoptosis (PARP and Caspase-3 cleavage) with PI3K/AKT and Bcl-2 inhibition” value with CK19/GFP-negative cells is “not individual”.
Regarding `N.N.[Cl][Pt][Cl]` [Cisplatin], in [1], the “colony formation of CK19/GFP-negative cells” value is given as “formed colonies” and the “colony formation of CK19/GFP-positive cells” value was “failed to do so”.
For the compound `C[C@H](NC(=O)Cc1cc(F)cc(F)c1)C(=O)N[C@H]1N=C(c2ccccc2)c2ccccc2N(C)C1=O` [Compound E], the “p-AKT (Ser473) level” value in the assay with p-AKT (Ser473) (listed as CE) is “significantly reduced; also recorded: specifically decreases”. Also, the “targeting of respective pathway (mRNA of pathway target genes)” value (“targeting of respective pathway” for short) in assay [2] was “targeting their respective pathways”.
For `CC1=C2C[C@H]3[C@@H](CC=C4C[C@@H](O)CC[C@@]43C)[C@@H]2CC[C@]12O[C@@H]1C[C@H](C)CN[C@H]1[C@H]2C` [Cyclopamine], the Bcl-2 expression level entry in the assay on Bcl-2 was “significantly reduced; also recorded: reduces”. Moreover, in assay [2], the “targeting of respective pathway” value is “targeting their respective pathways”.
`C[C@H](NC(=O)Cc1cc(F)cc(F)c1)C(=O)NC1C(=O)N(C)c2ccccc2-c2ccccc21` (stereo partly drawn) [DBZ, (2S)-2-[2-(3,5-difluorophenyl)-acetylamino]-N-(5-methyl-6-oxo-6,7-dihydro-5H-dibenzo[b,-d]azepin-7-yl)-propionamide]: the “p-AKT (Ser473) level” value with p-AKT (Ser473) is “significantly reduced; also recorded: decreases”. Also, in [2], the “targeting of respective pathway” value was “targeting their respective pathways”.
With `CC(=O)O[C@@]12CO[C@@H]1C[C@H](O)[C@@]1(C)C(=O)[C@H](O)C3=C(C)[C@@H](OC(=O)[C@H](O)[C@@H](NC(=O)OC(C)(C)C)c4ccccc4)C[C@@](O)([C@@H](OC(=O)c4ccccc4)[C@H]21)C3(C)C` [Docetaxel], the “CK-negative cells in xenografts” value in assay [3] is recorded as “enriched for CK-negative cells”. Further, in assay [1] (Docetaxel 10 nM (DU145) and 50 nM (22Rv1)), the “colony formation after exposure to Docetaxel” value is on record as “only CK19/GFP-negative cells formed colonies”. Further, the “viable CK19/GFP-negative population” value in the assay with DU145-pCK19-GFP cells (4.4±4.3% before treatment) is 73.1±10.2%. Also, the “viable CK19/GFP-positive population” value in the assay with DU145-pCK19-GFP cells (87.5±10.4% before treatment) was found to be 28.3±10.6%. Further, in the assay with 22Rv1-pCK19-GFP cells (8.5±3.5% before treatment), the “viable 22Rv1-pCK19-GFP-negative cells” value came out at 78.6±4.1%. In addition, the “viable CK19/GFP-positive cells” value in the assay with 22Rv1-pCK19-GFP cells (85.0±2.0% before treatment) is 19.3±3.4%. The “differentiation markers and developmental signaling pathways” value in assay [4] was “expected reduction in differentiation markers and increase in developmental signaling pathways”. Also, in assay [5], the “behavior of CK19/GFP-negative cells under therapy” value was “able to divide and exit mitosis”; the “behavior of CK19/GFP-positive cells under therapy” value is “died after mitotic arrest”.
Consider `CS(=O)(=O)c1ccc(C(=O)Nc2ccc(Cl)c(-c3ccccn3)c2)c(Cl)c1` [GDC-0449, Vismodegib], for which the Bcl-2 expression level entry with Bcl-2 is “significantly reduced; also recorded: reduces”. Besides, the “targeting of respective pathway” value in assay [2] is listed as “targeting their respective pathways”.
For `Cl.O=c1cc(N2CCOCC2)oc2c(-c3ccccc3)cccc12` [LY294002, 2-(4-Morpholinyl)-8-phenyl-1(4H)-benzopyran-4-one hydrochloride], the “colony formation of CK19/GFP-negative cells with PI3K/AKT and Bcl-2 inhibition” value in [1] is recorded as “not individual”. The “apoptosis (PARP and Caspase-3 cleavage) with PI3K/AKT and Bcl-2 inhibition” value in the assay on CK19/GFP-negative cells was “not individual”.
Take `O=C1c2c(O)ccc(O)c2C(=O)c2c(NCCNCCO)ccc(NCCNCCO)c21` [Mitoxantrone]: in assay [1], the “colony formation of CK19/GFP-negative cells” value is “formed colonies” and the “colony formation of CK19/GFP-positive cells” value is “failed to do so”.
The corresponding values for `CCC1=C[C@@H]2CN(C1)Cc1c([nH]c3ccccc13)[C@@](C(=O)OC)(c1cc3c(cc1OC)N(C)[C@H]1[C@@](O)(C(=O)OC)[C@H](OC(C)=O)[C@]4(CC)C=CCN5CC[C@]31[C@@H]54)C2` [Vinorelbine] are “formed colonies” and “failed to do so”.
